Laboratory results as given in patent US10287265B2, “Enantiomers of 8-hydroxyquinoline derivatives and the synthesis thereof” (AVIDIN Co. Ltd., priority 2015, dated 2019).

What was measured:
VEGF gene = experiment: Gene expression in primary astrocytes by qRT-PCR; type: cell-based, rat; conditions: in the cells
Protocol: Pure astrocyte culture was obtained from neonatal rats according to the protocol found in literature (Protocols for Neural Cell Culture 2001, pp 117-127. ch 9. Ruth Cole, Jean de Vellis. Preparation of Astrocyte, Oligodendrocyte, and Microglia Cultures from Primary Rat Cerebral Cultures). Astrocytes (1 million) were cultured in 100 mm TC-treated culture dishes (Orange Scientific, Belgium) in an incubator set at 37° C. and 5% CO2 with humid air. The R-enantiomeric derivative according to Example 2 was added to cells in two final concentrations: 330 nM and 1000 nM. Cells were also treated with 1000 nM PBT2 which bears the basic structure of the R-enantiomer according to Example 2 (8-hydroxy-quinoline ring) but contains conformational differences and was developed for the treatment of neurodegenerative disorders (Pub. No.: WO/2004/007461). Treatments were carried out with a 100 μM DMSO-based stock solution. Control cells were treated with the same amount of DMSO without the agent. Each treatment was conducted in three separate culture dishes. After treatment, cells were incubated at 37° C. for 3 h, then the medium was removed, cells were washed with PBS and total RNA was extracted from cells with the Accuzol™ Total RNA Extraction Solution (Bioneer, Daejeon, South Korea), according to the manufacturer's protocol. cDNA transcription was carried out with the High Capacity cDNA Reverse Transcription Kit (Life Technologies, Foster City, Calif., USA). During the test, the expression of four genes (PGK1, EPO, HMOX-1, VEGF) controlled by HIF1a was determined by qRT-PCR, with HPRT gene serving as a control. Relative expression of genes in treated samples was compared to untreated controls. The PCR was conducted with a LightCycler® Nano Instrument (Roche, Budapest, Hungary) in the presence of UPL (Universal Probe Library) probes (HPRT: 95, HMOX1: 4, EPO: 16, VEGF: 1, PGK1: 66), specific primers (HPRT1: 5′-gaccggttctgtcatgtcg-3′, HPRT2: 5′-[…]-3′; HMOX1-1: 5′-[…]-3′, HMOX1-2: 5′-ctgcagctcctcaaacagc-3′; EPO1: 5′-[…]-3′, EPO2: 5′-ccttctgcacagcccatt-3′; VEGF1: 5′-[…]-3′, VEGF2: 5′-[…]-3′; PGK1-1: 5′-[…]-3′, PGK1-2: 5′-gacttggctccattgtcca-3′) in 20 μl PCR reaction volume with 20 ng cDNA template and 10 μl Lightcycler DNA Probes Master (5×) Reagent Kit (Roche) according to the following protocol: activation of enzyme at 95° C. for 10 min, 50 cycles: denaturation at 95° C. for 15 sec, hybridization and polymerization, then detection at 60° C. for 30 sec.

human caspase 3 enzyme = molecular target: T1, human caspase 3 enzyme (Homo sapiens, UniProt P42574); experiment: Caspase 3 peptidase activity, Ac-DEVD-AMC substrate, fluorescence; type: biochemical
T1 construct: host or cells: E. coli
T1 sequence (P42574 29-175 limits assumed): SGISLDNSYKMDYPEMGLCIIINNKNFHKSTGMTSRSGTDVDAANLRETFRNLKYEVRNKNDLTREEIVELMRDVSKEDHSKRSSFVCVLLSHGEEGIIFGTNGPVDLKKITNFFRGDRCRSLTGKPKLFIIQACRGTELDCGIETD
T1 sequence (P42574 176-277 limits assumed): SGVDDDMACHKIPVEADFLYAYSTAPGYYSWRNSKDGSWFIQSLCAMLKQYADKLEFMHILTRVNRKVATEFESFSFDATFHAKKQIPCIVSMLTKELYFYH
Protocol: Throughout the experiments, human caspase 3 enzyme produced in E. coli was used as previously described (Mittl PRE, Marco S D, Krebs J F, Karanewsky D S, Priestle J P, Tomaselli K J and Grutter M G (1997) Structure of Recombinant Human CPP32 in Complex with the Tetrapeptide Acetyl-Asp-Val-Ala-Asp Fluoromethyl Ketone. J Biol Chem. 272: 6539-6547). […] After the addition of […] Ac-DEVD-AMC substrate, the reaction ran for 60 min. The amount of generated AMC (7-amino-4-methylcoumarine), which gives information about the enzyme activity, was detected by fluorescence at 360/465 nm.

C57BL6/J mice = experiment: Scopolamine-induced short-term memory impairment, Y maze test; type: in vivo, mouse; conditions: per os gavage; scopolamine 0.6 mg/kg i.p. 30 min prior to Y maze test
Protocol: In vivo experiments were carried out according to the National Institute of Health guidelines for the care and use of laboratory animals, approved by the French Ministry for Research and Technology. In the course of experiments, animals were housed at a standard temperature (22±1° C.) and in a light-controlled environment (lights on from 7 a.m. to 8 p.m.) with ad libitum access to food and water. Male C57BL/6 mice (C57BL/6J Rj, ref. SC-CJ-12w-M, Janvier, France) were housed 5 animals per cage. From one week before the start of the experiment until the end of the experiment, mice were housed individually. Animals were monitored twice-a-day by laboratory personnel (8 a.m. and 4 p.m.). In this project, young (14 weeks old) as well as aged (15-16 months old) mice were used. Experiments were carried out using 12 mice per experimental group.
Investigation of short-term working memory—Y maze test Y maze tests were carried out as previously described. Prior to testing, mice were brought to the experimental room for at least 30 min to acclimatize to experimental room conditions. […] Each arm entry was recorded with those entries being counted where the mouse completely placed its hind paws in the chosen arm. […] Results were calculated as the percentage of the ratio of actual detected alternations to possible alternations (defined as the number of total arm entries minus 2). […]

[1] = test system: NF-AT (Nuclear Factor of Activated T Cells) protein; experiment: NF-AT transcriptional activity, β-galactosidase reporter in Jurkat cells induced by A23187 and PMA; type: cell-based, human
Protocol: Cells (3×10^6 cells/ml) were incubated with 10 μM compound according to Example 2 in RPMI-1640 medium (pH=7.4) for 20 min at 37° C. Following this, incubation lasted for an additional 4 h in the presence of 0.5 μM A23187 and 50 ng/ml PMA (12-O-tetradecanoylphorbol-13-acetate). Induced effects can be determined by the β-galactosidase activity of cells treated with the compound according to Example 2 and untreated cells as it catalyzes the transformation of FDG (fluorescein di-β-D-galactopyranoside) into fluorescein. Reading of results was carried out with a SpectraFluor Plus plate reader. Decrease of β-galactosidase activity was compared to the effect of 1 μM cyclosporine A which was served as a positive control.

Compound: Cc1ccnc(N[C@H](c2ccc(C(F)(F)F)cc2)c2ccc3cccnc3c2O)n1 [Example 2, 7-[(R)-[(4-Methylpyrimidin-2-yl)amino][4-(trifluoromethyl)phenyl]methyl]quinolin-8-ol]
- increase of VEGF gene activity (VEGF gene): capable to increase the gene activity
- inhibition of caspase-3 enzyme (concentration range in words) (human caspase 3 enzyme): inhibits in micromolar concentration
- reduction of the activity of caspase 3 enzyme (human caspase 3 enzyme; applied concentration of 10 μM): 74%
- inhibition of scopolamine-induced short-term memory impairment (C57BL6/J mice): inhibited
- inhibition of transcriptional induction regulated by NF-AT (concentration range in words) [1]: inhibits in micromolar concentration
- IC50 ([1]; Homo sapiens, Jurkat cells, 0.5 μM A23187 and 50 ng/ml PMA, 4 h, read-out: half-value concentration for reduction of the transcriptional activity of NF-AT protein): 2200 nM
